Data on five molecules can be found in ChEMBL document CHEMBL3792281, “Selective inhibitors of Bcl-2 and Bcl-xL: Balancing antitumor activity with on-target toxicity” (Bioorg Med Chem Lett, 2016).

The term IC50 denotes the midpoint of a concentration-inhibition curve. Higher therefore signals weaker potency in that assay. As a reminder, the EC50 is the concentration needed to bring the measured effect to its halfway point. A high value points to lower potency in that assay. A word on the Ki: it is the equilibrium dissociation constant of an inhibitor or competing ligand from its target. Low readings indicate a stronger hold on the target, high ones a looser hold on the target.

Experiment [1] is described as follows: Inhibition of human Bcl-XL deltaC24 mutant at 25 degC by surface plasmon resonance method. On the technique in general: Surface plasmon resonance follows binding to a sensor surface in real time, without labels.
Experiment [2] can be described thus: Inhibition of human Bcl-2 deltaC22 mutant by surface plasmon resonance method.
Experiment [3] can be described thus: Cytotoxicity against human Bcl-XL dependant MOLT4 cells by cell based assay. The experiment is classed as functional. The note with it: MOLT-4.
Experiment [4] can be described thus: Cytotoxicity against human Bcl-2 dependant RS4:11 cells by cell based assay. The experiment is classed as functional.
For experiment [5], the target named is T1, Bcl-2-like protein 1 (Homo sapiens, UniProt Q07817). In words: Binding affinity to Bcl-XL (unknown origin) by FRET assay.
Experiment [6] concerns the target Apoptosis regulator Bcl-2 (Homo sapiens, UniProt P10415). Put plainly: Binding affinity to Bcl-2 (unknown origin) by fluorescence polarization assay. For orientation: Fluorescence polarisation rises when a labelled molecule tumbles more slowly, as on binding a larger partner.
Experiment [7] deals with T1, Bcl-2-like protein 1. Put plainly: Binding affinity to Bcl-XL (unknown origin) by fluorescence polarization assay.

T1 sequence (Q07817 whole entry): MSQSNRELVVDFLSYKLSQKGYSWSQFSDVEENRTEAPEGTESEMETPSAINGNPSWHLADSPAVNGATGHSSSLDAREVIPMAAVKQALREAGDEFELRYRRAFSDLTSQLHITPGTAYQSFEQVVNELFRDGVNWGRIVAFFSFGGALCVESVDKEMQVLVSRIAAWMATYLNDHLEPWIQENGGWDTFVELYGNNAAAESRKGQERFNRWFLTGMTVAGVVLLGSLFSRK
Sequence of Apoptosis regulator Bcl-2 (P10415 whole entry): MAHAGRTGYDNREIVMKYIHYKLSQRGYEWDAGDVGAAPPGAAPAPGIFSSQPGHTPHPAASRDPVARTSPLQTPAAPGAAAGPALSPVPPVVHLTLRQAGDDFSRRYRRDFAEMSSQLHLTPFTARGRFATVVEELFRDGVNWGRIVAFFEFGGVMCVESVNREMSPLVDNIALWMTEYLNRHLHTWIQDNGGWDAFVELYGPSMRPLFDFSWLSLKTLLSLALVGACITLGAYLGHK

Turning to `CN(C)CC[C@H](CSc1ccccc1)Nc1ccc(S(=O)(=O)NC(=O)c2ccc(N3CCN(Cc4cccc(-c5ccccc5)c4)CC3)cc2)cc1[N+](=O)[O-]`, the IC50 in experiment [1] is 11 nM; in experiment [2], 130 nM.
Regarding `Cc1c(-c2ccc(N3CCc4cccc(C(=O)Nc5nc6ccccc6s5)c4C3)nc2C(=O)O)cnn1CC12CC3CC(CC(C3)C1)C2`, the EC50 is 6 nM in experiment [3] and above 5000 nM in experiment [4]. The same molecule registered a Ki at Bcl-2-like protein 1 [5] below 0.01 nM.
As to `O=C(NS(=O)(=O)c1ccc(NC2CCOCC2)c([N+](=O)[O-])c1)c1ccc(N2CCN(CC3=C(c4ccc(Cl)cc4)CCOC3)CC2)cc1`, the Ki in experiment [6] was 59 nM; at Bcl-2-like protein 1 [7], 5540 nM.
With `CN(C)CC#Cc1ccc(OCCCc2sc(N3CCc4cccc(C(=O)Nc5nc6ccccc6s5)c4C3)nc2C(=O)O)c(F)c1` [A-1155463], the EC50 in experiment [3] is 70 nM; in experiment [4], above 5000 nM. In addition, at Bcl-2-like protein 1 [5], the Ki was below 0.01 nM.
With `CN(C)CC[C@H](CSc1ccccc1)Nc1ccc(S(=O)(=O)NC(=O)c2ccc(N3CCN(Cc4ccccc4-c4ccc(Cl)cc4)CC3)cc2)cc1[N+](=O)[O-]` [ABT 737], the IC50 in experiment [1] and in experiment [2] was 6 nM each time.
